What follows are molecules tested against B-Raf (V600E)-kinase (Homo sapiens, UniProt P15056, V600E) (assay: Kinase test B-Raf (V600E)). Settings: compound concentration 2 μM; 100% = no inhibition, 0% = total inhibition; read-out: % CTL (residual activity of the enzyme relative to DMSO control).
Assay type: biochemical
Description: In a dilution series 10 μL of test substance solution are placed in a multiwell plate. The dilution series is selected so that generally a range of concentrations of 2 μM to 0.119 nM or 0.017 nM is covered. If necessary the initial concentration of 2 μM is changed to 50 μM, 10 μM or 0.4 μM or 0.2857 μM and further dilution is carried out accordingly. The final concentration of DMSO is 5%. 10 μL of the B-Raf (V600E)-kinase solution are pipetted in (containing 0.5 ng B-Raf (V600E)-kinase in 20 mM Tris-HCl pH 7.5, 0.1 mM EDTA, 0.1 mM EGTA, 0.286 mM sodium orthovanadate, 10% glycerol, 1 mg/mL bovine serum albumin, 1 mM dithiothreitol) and the mixture is incubated for 1 h at RT under with shaking The kinase reaction is started by the addition of 20 μL ATP solution [final concentration: 250 μM ATP, 30 mM Tris-HCl pH 7.5, 0.02% Brij, 0.2 mM sodium orthovanadate, 10 mM magnesium acetate, 0.1 mM EGTA, phosphatase cocktail (Sigma, # P2850, dilution recommended by the manufacturer), 0.1 mM EGTA] and 10 μL MEK1 solution [containing 50 ng biotinylated MEK1 (prepared from purified MEK1 according to standard procedure, e.g. with EZ-Link Sulpho-NHS-LC-Biotin reagent, Pierce, # 21335) and carried out for 60 min at RT with constant shaking. The reaction is stopped by the addition of 12 μL of a 100 mM EDTA solution and incubation is continued for a further 5 min. 55 μL of the reaction solution are transferred into a streptavidin-coated plate (e.g. Streptawell HighBond, Roche, #11989685001) and shaken gently for 1 h at RT, in order to bind biotinylated MEK1 to the plate. After elimination of the liquid the plate is washed five times with 200 μL of 1×PBS and 100 μL solution of primary antibody plus europium-labelled secondary antibody [Anti Phospho-MEK (Ser217/221), Cell Signaling, # 9121 and Eu-N1 labeled goat-anti-rabbit antibody, Perkin Elmer, #AD0105], the primary antibody is diluted 1:2000 and the secondary antibody is diluted to 0.4-0.5 μg/mL in Delfia Assay Buffer (Perkin Elmer, #1244-111). After 1 h shaking at RT the solution is poured away and washed five times with 200 μL Delfia Wash Buffer (Perkin Elmer, #4010-0010/#1244-114). After the addition of 200 μL Enhancement Solution (Perkin Elmer, #4001-0010/#1244-105) the mixture is shaken for 10 min at RT and then measured in a Wallac Victor using the program “Delfia Time Resolved Fluorescence (Europium)”. IC50 values are obtained from these dosage-activity curves using a software program (GraphPadPrizm).
A value of 100% indicates no inhibition while a value of 0% indicates total inhibition. The % CTL values denote the residual activity of the enzyme after the addition of the inhibitory compound in the solvent DMSO in relation to the enzyme activity in the solvent DMSO without the addition of a compound (control). The values were determined using the B-Raf(V600E)-kinase test described above.

Chain of B-Raf (V600E)-kinase (P15056 whole entry V600E): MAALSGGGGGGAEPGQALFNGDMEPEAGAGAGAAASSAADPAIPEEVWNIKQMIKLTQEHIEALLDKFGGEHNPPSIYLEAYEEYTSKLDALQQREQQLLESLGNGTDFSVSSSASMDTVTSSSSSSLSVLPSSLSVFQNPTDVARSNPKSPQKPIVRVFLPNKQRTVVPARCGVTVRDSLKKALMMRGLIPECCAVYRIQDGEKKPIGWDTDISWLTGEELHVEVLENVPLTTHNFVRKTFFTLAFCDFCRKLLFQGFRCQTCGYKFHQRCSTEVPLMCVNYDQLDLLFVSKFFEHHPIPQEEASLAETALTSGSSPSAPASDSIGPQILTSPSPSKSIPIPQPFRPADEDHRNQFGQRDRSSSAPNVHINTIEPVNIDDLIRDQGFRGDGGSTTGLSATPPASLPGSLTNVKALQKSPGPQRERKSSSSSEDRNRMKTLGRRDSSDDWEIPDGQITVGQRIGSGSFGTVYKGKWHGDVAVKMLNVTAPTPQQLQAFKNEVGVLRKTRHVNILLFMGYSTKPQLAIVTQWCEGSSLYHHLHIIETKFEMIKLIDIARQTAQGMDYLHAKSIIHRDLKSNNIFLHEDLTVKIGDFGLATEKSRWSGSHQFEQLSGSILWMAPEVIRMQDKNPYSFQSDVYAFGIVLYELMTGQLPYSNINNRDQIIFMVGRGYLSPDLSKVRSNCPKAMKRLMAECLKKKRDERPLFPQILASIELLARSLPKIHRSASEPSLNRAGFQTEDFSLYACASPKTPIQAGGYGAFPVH

SMILES	remaining activity at 2 µM
Cc1ncc(C(=O)Nc2cc(N3CCN(C(C)C)CC3)cc(C(F)(F)F)c2)cc1-n1cc(-c2cnn(C)c2C)nn1 [Example I-58]	5.5%
CCN1CCN(c2cc(NC(=O)c3cnc(C)c(-n4cc(-c5cnn(C)c5C)nn4)c3)cc(C(F)(F)F)c2)CC1 [Example I-59]	13.4%
Cc1ncc(C(=O)Nc2cc(N(C)CCN(C)C)cc(C(F)(F)F)c2)cc1-n1cc(-c2cnn(C)c2C)nn1 [Example I-60]	7.2%
Cc1ncc(C(=O)Nc2cc(N3CCOCC3)c(C)c(C(F)(F)F)c2)cc1-n1cc(-c2cnn(C)c2C)nn1 [Example I-61]	8.1%
Cc1ncc(C(=O)Nc2cc(Br)cc(C(F)(F)F)c2)cc1-n1cc(-c2cnn(C)c2C)nn1 [Example I-62]	2.8%
Cc1ncc(C(=O)Nc2cc(N3CC[C@H](N(C)C)C3)c(C)c(C(F)(F)F)c2)cc1-n1cc(-c2cnn(C)c2C)nn1 [Example I-63]	4.6%
COc1ccc(NC(=O)c2cnc(C)c(-n3cc(-c4cncnc4)nn3)c2)cc1C(F)(F)F [Example I-64]	6.6%
Cc1ncc(C(=O)Nc2cc(N3CC[C@@H](N(C)C)C3)c(C)c(C(F)(F)F)c2)cc1-n1cc(-c2cnn(C)c2C)nn1 [Example I-65]	7.1%
Cc1ncc(C(=O)Nc2cc(N3CCCCC3)c(C)c(C(F)(F)F)c2)cc1-n1cc(-c2cnn(C)c2C)nn1 [Example I-66]	6.4%
Cc1ncc(C(=O)Nc2cc(N3CCN(C)CC3)c(C)c(C(F)(F)F)c2)cc1-n1cc(-c2cncnc2)nn1 [Example I-67]	2.9%
CCNc1cc(NC(=O)c2cnc(C)c(-n3cc(-c4cnn(C)c4C)nn3)c2)cc(C(F)(F)F)c1C [Example I-68]	4.7%
Cc1ncc(C(=O)Nc2cc(N3CCOCC3)cc(C(F)(F)F)c2)cc1-n1cc(-c2cnn(C)c2C)nn1 [Example I-69]	2.8%
Cc1ncc(C(=O)Nc2cc(N(C)CCN(C)C)c(C)c(C(F)(F)F)c2)cc1-n1cc(-c2cnn(C)c2C)nn1 [Example I-71]	5.5%
Cc1ncc(C(=O)Nc2cc(CN3CCCC3)cc(C(F)(F)F)c2)cc1-n1cc(-c2cncnc2)nn1 [Example I-72]	5.1%
CCN(CC)c1cc(NC(=O)c2cnc(C)c(-n3cc(-c4cnn(C)c4C)nn3)c2)cc(C(F)(F)F)c1 [Example I-73]	1.7%
Cc1ncc(C(=O)Nc2cc(N3CCCCC3)cc(C(F)(F)F)c2)cc1-n1cc(-c2cnn(C)c2C)nn1 [Example I-74]	9%
CCNc1cc(NC(=O)c2cnc(C)c(-n3cc(-c4cnn(C)c4C)nn3)c2)cc(C(F)(F)F)c1 [Example I-75]	7.3%
Cc1ncc(C(=O)Nc2cc(N3CC[C@H](N(C)C)C3)cc(C(F)(F)F)c2)cc1-n1cc(-c2cnn(C)c2C)nn1 [Example I-77]	1.9%
Cc1ncc(C(=O)Nc2cc(NCCN(C)C)cc(C(F)(F)F)c2)cc1-n1cc(-c2cnn(C)c2C)nn1 [Example I-78]	2.8%
Cc1cn(-c2cc(NC(=O)c3cnc(C)c(-n4cc(-c5cncnc5)nn4)c3)cc(C(F)(F)F)c2)cn1 [Example I-79]	3.6%
Cc1ncc(C(=O)Nc2cc(C(C)(C)C)on2)cc1-n1cc(-c2cccnc2)nn1 [Example I-80]	1.9%
Cc1ncc(C(=O)Nc2cc(C(F)(F)F)ccn2)cc1-n1cc(-c2cncs2)nn1 [Example I-81]	1.2%
Cc1ncc(C(=O)Nc2cc(C(C)(C)C)on2)cc1-n1cc(-c2cncs2)nn1 [Example I-82]	1.6%

SMILES	remaining activity at 2 µM
Cc1ncc(C(=O)Nc2cc(C(C)(C)C)n[nH]2)cc1-n1cc(-c2cncs2)nn1 [Example I-83]	1.1%
COc1cncc(-c2cn(-c3cc(C(=O)Nc4cc(C(C)(C)C)n[nH]4)cnc3C)nn2)c1 [Example I-84]	2.4%
COc1cncc(-c2cn(-c3cc(C(=O)Nc4cc(OC(F)(F)F)cc(N5CCN(C)CC5)c4)cnc3C)nn2)c1 [Example I-85]	1.1%
Cc1ncc(C(=O)Nc2cc(C3CCN(C)CC3)cc(C(F)(F)F)c2)cc1-n1cc(-c2cnn(C)c2C)nn1 [Example I-86]	1.4%
Cc1ncc(C(=O)Nc2cc(C3=CCN(C)CC3)cc(C(F)(F)F)c2)cc1-n1cc(-c2cnn(C)c2C)nn1 [Example I-87]	1.7%
Cc1ncc(C(=O)Nc2cc(C3=CCNCC3)cc(C(F)(F)F)c2)cc1-n1cc(-c2cnn(C)c2C)nn1 [Example I-88]	1.3%
COc1ccc(NC(=O)c2cnc(C)c(-n3cc(-c4cncs4)nn3)c2)cc1C(F)(F)F [Example I-89]	1.5%
COc1cncc(-c2cn(-c3cc(C(=O)Nc4cc(CN5CCCC5)c(Cl)c(C(F)(F)F)c4)cnc3C)nn2)c1 [Example I-90]	2.1%
COc1cncc(-c2cn(-c3cc(C(=O)Nc4cc(CN5CCCC5)cc(C(F)(F)F)c4)cnc3C)nn2)c1 [Example I-91]	2.5%
COc1cncc(-c2cn(-c3cc(C(=O)Nc4ccc(OC)c(C(F)(F)F)c4)cnc3C)nn2)c1 [Example I-92]	2.5%
Cc1ncc(C(=O)Nc2cc(CN(C)C)c(C)c(C(F)(F)F)c2)cc1-n1cc(-c2cnn(C)c2C)nn1 [Example I-93]	3.5%
COCCN(C)Cc1cc(NC(=O)c2cnc(C)c(-n3cc(-c4cnn(C)c4C)nn3)c2)cc(C(F)(F)F)c1C [Example I-94]	3.5%
COc1c(CNCC(C)C)cc(NC(=O)c2cnc(C)c(-n3cc(-c4cnn(C)c4C)nn3)c2)cc1C(F)(F)F [Example I-95]	3.1%
COCCN(C)Cc1cc(NC(=O)c2cnc(C)c(-n3cc(-c4cnn(C)c4C)nn3)c2)cc(C(F)(F)F)c1OC [Example I-96]	3.4%
CCN1CC=C(c2cc(NC(=O)c3cnc(C)c(-n4cc(-c5cnn(C)c5C)nn4)c3)cc(C(F)(F)F)c2C)CC1 [Example I-97]	3.3%
Cc1ncc(C(=O)Nc2cc(C3=CCN(CC4CC4)CC3)c(C)c(C(F)(F)F)c2)cc1-n1cc(-c2cnn(C)c2C)nn1 [Example I-98]	3%
CCC(C)N1CC=C(c2cc(NC(=O)c3cnc(C)c(-n4cc(-c5cnn(C)c5C)nn4)c3)cc(C(F)(F)F)c2C)CC1 (stereo not shown) [Example I-99]	1.9%
Cc1ncc(C(=O)Nc2cc(C(F)(F)F)cc(Br)c2C)cc1-n1cc(-c2cnn(C)c2C)nn1 [Example I-100]	3%
COc1c(CN(C)C)cc(C(F)(F)F)cc1NC(=O)c1cnc(C)c(-n2cc(-c3cnn(C)c3C)nn2)c1 [Example I-102]	4.6%
COc1c(CNC(C)C)cc(NC(=O)c2cnc(C)c(-n3cc(-c4cnn(C)c4C)nn3)c2)cc1C(F)(F)F [Example I-103]	3.8%
COc1c(CN2CCCC2)cc(C(F)(F)F)cc1NC(=O)c1cnc(C)c(-n2cc(-c3cnn(C)c3C)nn2)c1 [Example I-104]	2.1%
Cc1ncc(C(=O)Nc2cc(CN(C)C)cc(C(F)(F)F)c2)cc1-n1cc(-c2cnn(C)c2C)nn1 [Example I-106]	1.3%
Cc1ncc(C(=O)Nc2cc(CNC(C)C)cc(C(F)(F)F)c2)cc1-n1cc(-c2cnn(C)c2C)nn1 [Example I-107]	1.6%

Same assay, conditions: measurement at 1.43 μM (***); 100% = no inhibition, 0% = total inhibition; read-out: % CTL (residual activity of the enzyme relative to DMSO control)

SMILES	remaining activity at 1.43 µM
Cc1ncc(C(=O)Nc2cc(N3CC[C@@H](N(C)C)C3)cc(C(F)(F)F)c2)cc1-n1cc(-c2cnn(C)c2C)nn1 [Example I-76]	2%
Cc1ncc(C(=O)Nc2cc(C(F)(F)F)cc(N3CCN(C)CC3)c2C)cc1-n1cc(-c2cnn(C)c2C)nn1 [Example I-101]	1.3%
COc1c(CNCC(C)C)cc(C(F)(F)F)cc1NC(=O)c1cnc(C)c(-n2cc(-c3cnn(C)c3C)nn2)c1 [Example I-105]	2%

— patent US8778929B2, “Substituted heteroaryl inhibitors of B-RAF” (Boehringer Ingelheim International GmbH, priority 2008, dated 2014)
